Laboratory results taken from PubChem BioAssay (NCI).
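Five compound concentrations were applied to cells in 96-well plates for 48 hours; endpoints were derived by simple linear interpolation of the resulting dose-response curve. GI50 is the concentration that inhibits growth by half. TGI marks complete inhibition of growth.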

How the values were obtained:
Test in all cases: NCI tumour cell line growth inhibition, 48 h
786-0 renal = test system: 786-0 renal
A498 renal = test system: A498 renal
A549 NSCLC = test system: A549 NSCLC
ACHN renal = test system: ACHN renal
BT-549 breast = test system: BT-549 breast
CAKI-1 renal = test system: CAKI-1 renal
CCRF-CEM leukemia = test system: CCRF-CEM leukemia
COLO 205 colon = test system: COLO 205 colon
DU-145 prostate = test system: DU-145 prostate
EKVX NSCLC = test system: EKVX NSCLC
HCC-2998 colon = test system: HCC-2998 colon
HCT-116 colon = test system: HCT-116 colon
HCT-15 colon = test system: HCT-15 colon
HL-60(TB) leukemia = test system: HL-60(TB) leukemia
HOP-62 NSCLC = test system: HOP-62 NSCLC
HOP-92 NSCLC = test system: HOP-92 NSCLC
HS 578T breast = test system: HS 578T breast
HT29 colon = test system: HT29 colon
IGROV1 ovarian = test system: IGROV1 ovarian
K-562 leukemia = test system: K-562 leukemia
KM12 colon = test system: KM12 colon
LOX IMVI melanoma = test system: LOX IMVI melanoma
M14 melanoma = test system: M14 melanoma
MALME-3M melanoma = test system: MALME-3M melanoma
MCF7 breast = test system: MCF7 breast
MDA-MB-231 breast = test system: MDA-MB-231 breast
MOLT-4 leukemia = test system: MOLT-4 leukemia

In the case of `COc1cc(/C=C/C(=O)c2ccccc2O)ccc1OCCCOc1cc2c(cc1OC)C(=O)N1CCC[C@H]1C=N2`, the GI50 (786-0 renal) is reported as 0.025 µM, the TGI (786-0 renal) is reported as 1.53 µM and the GI50 (A498 renal) is reported as 0.0479 µM. The TGI (A498 renal) was 0.319 µM, the GI50 (A549 NSCLC) was 0.0315 µM and the TGI (A549 NSCLC) was 1.24 µM. The GI50 (ACHN renal) was 0.071 µM, the TGI (ACHN renal) was 0.818 µM and the GI50 (BT-549 breast) was 0.0179 µM. The TGI (BT-549 breast) was 0.0476 µM, the GI50 (CAKI-1 renal) was 0.0403 µM and the TGI (CAKI-1 renal) was 0.313 µM. For the same compound, the GI50 (CCRF-CEM leukemia) was 0.027 µM, the TGI (CCRF-CEM leukemia) was 0.094 µM and the GI50 (COLO 205 colon) was 0.0348 µM. It also gave a TGI (COLO 205 colon) of 0.144 µM, a GI50 (DU-145 prostate) of 0.0351 µM and a TGI (DU-145 prostate) of 0.452 µM. It also gave a GI50 (EKVX NSCLC) of 0.215 µM, a TGI (EKVX NSCLC) of 0.955 µM and a GI50 (HCC-2998 colon) of 0.138 µM. The TGI (HCC-2998 colon) was 0.433 µM, the GI50 (HCT-116 colon) was 0.0332 µM and the TGI (HCT-116 colon) was 1.57 µM. For the same compound, the GI50 (HCT-15 colon) was 0.255 µM, the TGI (HCT-15 colon) was 1.05 µM and the GI50 (HL-60(TB) leukemia) was 0.0515 µM. It also gave a TGI (HL-60(TB) leukemia) of 0.161 µM, a GI50 (HOP-62 NSCLC) of 0.0392 µM and a TGI (HOP-62 NSCLC) of 13.1 µM. For the same compound, the GI50 (HOP-92 NSCLC) was 0.0499 µM, the TGI (HOP-92 NSCLC) was 0.99 µM and the GI50 (HS 578T breast) was 0.054 µM. For the same compound, the TGI (HS 578T breast) was 0.284 µM, the GI50 (HT29 colon) was 0.0344 µM and the TGI (HT29 colon) was > 100 µM. It also gave a GI50 (IGROV1 ovarian) of 0.0255 µM, a TGI (IGROV1 ovarian) of 0.163 µM and a GI50 (K-562 leukemia) of 0.0297 µM. The TGI (K-562 leukemia) was 18.2 µM, the GI50 (KM12 colon) was 0.0369 µM and the TGI (KM12 colon) was 0.263 µM. It also gave a GI50 (LOX IMVI melanoma) of 0.0204 µM, a TGI (LOX IMVI melanoma) of 0.0489 µM and a GI50 (M14 melanoma) of 0.0401 µM. It also gave a TGI (M14 melanoma) of 0.172 µM, a GI50 (MALME-3M melanoma) of 0.0787 µM and a TGI (MALME-3M melanoma) of 0.318 µM. The GI50 (MCF7 breast) was 0.0426 µM, the TGI (MCF7 breast) was > 36.9 µM and the GI50 (MDA-MB-231 breast) was 0.0564 µM. The TGI (MDA-MB-231 breast) was 0.335 µM, the GI50 (MOLT-4 leukemia) was 0.017 µM and the TGI (MOLT-4 leukemia) was 0.0572 µM.
